Assay results published in article PMC4757070, “Involvement of a Novel Class C Beta-Lactamase in the Transglutaminase Mediated Cross-Linking Cascade of Streptomyces mobaraensis DSM 40847” (PLoS ONE, 2016).
Read-outs that look alike come from different tables or passages of the source.

Tests used:
[1] = target: T1, beta-lactamase Sml-1 (rSml-1); assay: inhibition of nitrocefin hydrolysis at […] nm; Ki from IC50 ([…]) by Cheng-Prusoff; assay type: biochemical
T1 construct: recombinant Sml-1 produced in E. coli BL21(DE3) RIL with pelB leader and C-terminal Gly-Leu-Glu-(His)6

[2] = target: T1, beta-lactamase Sml-1 (rSml-1); assay: as above; assay type: biochemical, Streptomyces mobaraensis

CC1(C)S[C@@H]2[C@H](NC(=O)[C@H](N)c3ccccc3)C(=O)N2[C@H]1C(=O)O [ampicillin]
Ki [1]: 180 µM

CC1(C)S[C@@H]2[C@H](NC(=O)Cc3ccccc3)C(=O)N2[C@H]1C(=O)O [penicillin G]
Ki [2]: 100 µM
